Data as given in PMC9777025, “Silibinin Overcomes EMT-Driven Lung Cancer Resistance to New-Generation ALK Inhibitors” (Cancers, 2022).
pIC50: −log10 of the molar value.

How the values were obtained:
[1] = tested on: H2228; assay: cells; design: species or system H2228/CR, H3122, H3122/CR; MTT cell viability assay, absorbance at 570 nm, IC50 by interpolation; conditions: Homo sapiens, NCI-H2228; without silibinin
Experimental: (§1) 2.5. Cell Viability Assay The cell viability effects of ALK–TKIs and silibinin were determined using the colorimetric MTT (3-4,5-dimethylthiazol-2-yl-2,5-diphenyl-tetrazolium bromide) reduction assay. Dose-response curves to graded concentrations of drugs were plotted as a percentage of the control cell absorbance, which was obtained from control cells containing the vehicle processed simultaneously. For each treatment, cell viability was evaluated using the following equation: (OD570 of the treated sample/OD570 of the untreated sample) × 100. Sensitivity to agents was expressed in terms of the concentrations required for a 50% (IC50) reduction in cell viability. Since the percentage of control absorbance was considered to be the surviving fraction of cells, the IC50 values were defined as the concentration of drug that produced a 50% reduction in control absorbance (by interpolation).

[2] = tested on: T1, H3122/CR; assay: cells; design: species or system H2228, H2228/CR; MTT cell viability assay, absorbance at 570 nm, IC50 by interpolation; conditions: Homo sapiens, NCI-H3122; without silibinin
T1 construct: crizotinib-resistant H3122
Experimental: as §1

[3] = tested on: H3122; assay: cells; design: species or system H2228, H2228/CR, H3122/CR; MTT cell viability assay, absorbance at 570 nm, IC50 by interpolation; conditions: Homo sapiens, NCI-H3122; without silibinin
Experimental: as §1

[4] = tested on: T2, H2228/CR; assay: cells; design: species or system H3122, H3122/CR; MTT cell viability assay, absorbance at 570 nm, IC50 by interpolation; conditions: Homo sapiens, NCI-H2228; without silibinin
T2 construct: crizotinib-resistant H2228
Experimental: as §1

[5] = molecular target: T3, TGFβR1/ALK5 (Homo sapiens, UniProt P36897); assay: LanthaScreen Eu kinase binding assay (TR-FRET tracer displacement), 10-point titration
T3 construct: gene TGFBR1
T3 sequence (P36897 34-503): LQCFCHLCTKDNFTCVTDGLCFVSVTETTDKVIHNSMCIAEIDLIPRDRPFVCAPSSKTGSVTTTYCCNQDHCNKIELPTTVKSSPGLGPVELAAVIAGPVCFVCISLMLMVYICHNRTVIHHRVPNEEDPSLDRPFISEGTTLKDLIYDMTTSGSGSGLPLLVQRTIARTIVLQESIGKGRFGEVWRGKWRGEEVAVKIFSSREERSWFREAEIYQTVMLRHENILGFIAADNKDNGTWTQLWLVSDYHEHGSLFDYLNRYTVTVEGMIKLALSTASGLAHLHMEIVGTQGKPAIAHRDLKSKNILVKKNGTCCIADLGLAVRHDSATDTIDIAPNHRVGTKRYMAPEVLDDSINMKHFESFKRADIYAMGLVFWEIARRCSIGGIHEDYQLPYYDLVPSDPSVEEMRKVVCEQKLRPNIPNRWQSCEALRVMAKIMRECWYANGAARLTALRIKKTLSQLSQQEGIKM

[6] = molecular target: T4, TGFβR2 (Homo sapiens, UniProt P37173); assay: as above
T4 construct: gene TGFBR2
T4 sequence (P37173 23-567): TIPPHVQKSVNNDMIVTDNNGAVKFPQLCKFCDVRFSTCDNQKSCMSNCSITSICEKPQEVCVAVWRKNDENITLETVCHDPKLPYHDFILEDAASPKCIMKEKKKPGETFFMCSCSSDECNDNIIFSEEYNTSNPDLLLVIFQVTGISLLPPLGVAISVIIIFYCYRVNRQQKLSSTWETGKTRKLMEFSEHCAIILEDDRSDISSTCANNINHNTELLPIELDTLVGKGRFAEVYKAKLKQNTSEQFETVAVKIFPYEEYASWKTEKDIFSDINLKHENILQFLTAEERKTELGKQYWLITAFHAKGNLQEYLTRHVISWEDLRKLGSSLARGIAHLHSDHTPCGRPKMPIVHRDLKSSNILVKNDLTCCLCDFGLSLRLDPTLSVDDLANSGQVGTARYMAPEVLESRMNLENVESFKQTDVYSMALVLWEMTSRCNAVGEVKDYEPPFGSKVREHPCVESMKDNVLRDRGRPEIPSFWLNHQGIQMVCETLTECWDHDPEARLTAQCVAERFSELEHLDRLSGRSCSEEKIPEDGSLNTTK

Row | pIC50 [1] | pIC50 [2] | pIC50 [3] | pIC50 [4] | pIC50 [5] | pIC50 [6] | Structure (SMILES)
1 | 6.30 | 6.92 | 7.70 | 5.42 |  |  | COc1cc(N2CCC(N3CCN(C)CC3)CC2)ccc1Nc1ncc(Cl)c(Nc2ccccc2P(C)(C)=O)n1 [brigatinib]
2 | 5.68 | 5.97 | 6.54 | 4.97 |  |  | C[C@@H](Oc1cc(-c2cnn(C3CCNCC3)c2)cnc1N)c1c(Cl)ccc(F)c1Cl [crizotinib]
3 | 6.00 | 7.70 | 8.40 | 4.08 |  |  | C[C@H]1Oc2cc(cnc2N)-c2c(nn(C)c2C#N)CN(C)C(=O)c2ccc(F)cc21 [lorlatinib]
4 |  |  |  |  | 4.15 | 4.25 | COc1cc(C2Oc3cc([C@H]4Oc5cc(O)cc(O)c5C(=O)[C@@H]4O)ccc3OC2CO)ccc1O (mixture of isomers) [silibinin]
